Measured values reported in paper PMC3842960, “Natural Stilbenoids Isolated from Grapevine Exhibiting Inhibitory Effects against HIV-1 Integrase and Eukaryote MOS1 Transposase In Vitro Activities” (PLoS ONE, 2013).

Columns and labels:
[1] = molecular target: T1, MOS1 (Drosophila mauritiana, UniProt Q7JQ07); test: MOS1 in vitro activities, overall statements of the discussion; format: biochemical, D. mauritiana; details: in vitro assays of MOS1 activities; discussion
T1 construct: involving the full-length Mos1 transposase (MOS1) was recently solved; made in house
T1 sequence (Q7JQ07 whole entry): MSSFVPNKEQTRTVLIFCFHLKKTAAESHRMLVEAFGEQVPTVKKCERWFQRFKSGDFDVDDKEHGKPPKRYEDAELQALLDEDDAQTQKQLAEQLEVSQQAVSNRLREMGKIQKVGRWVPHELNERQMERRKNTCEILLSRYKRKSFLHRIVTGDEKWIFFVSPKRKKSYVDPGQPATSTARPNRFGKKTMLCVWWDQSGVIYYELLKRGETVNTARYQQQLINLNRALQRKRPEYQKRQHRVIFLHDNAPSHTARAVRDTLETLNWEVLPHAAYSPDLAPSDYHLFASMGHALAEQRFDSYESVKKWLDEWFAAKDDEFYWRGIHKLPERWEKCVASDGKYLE
Experimental: (§1) In vitro transposition reactions were performed using pBC-3T3 as both the donor DNA and the target, as previously described. Briefly, the basic transposition reaction mixtures contained 10 mM Tris-HCl (pH 9), 50 mM NaCl, 20 mM MgCl2, 0.5 mM EDTA, 5% glycerol, 5 ng/ml BSA, 600 ng pBC-3T3, and 80 nM purified MBP-MOS1 (added last) in a volume of 20 µl. Inhibitors (25 or 10 µM, as specified) or DMSO (2%) were added to the reaction mixtures before the transposase. The reactions were allowed to proceed for 30 min at 30°C. After phenol-chloroform extraction and ethanol precipitation, 10% of the reaction mixture was transformed in electro-competent JM109 E. coli (2 mm cuvette, 1.5 kV in a MicroPulser™BioRad). Appropriate dilutions of each reaction mixture were plated on LB-tetracycline (12.5 µg/ml) agar and LB-chloramphenicol (80 µg/ml) agar to score the transposition rate. The transposition rate was the number of Tet^R colonies divided by the number of Chloram^R plus Tet^R colonies. Each condition was done at least three times in independent experiments.
Basic excision reaction mixtures contained 10 mM Tris-HCl (pH 9), 50 mM NaCl, 20 mM MgCl2, 0.5 mM EDTA, 0.5 mM DTT, 100 ng BSA, 600 ng of super-coiled pBC-3T3, and 80 nM MBP-MOS1 (added last) in a volume of 20 µl. Molecules (25 or 10 µM, as specified) or DMSO (2%) were added to the reaction mixtures before the transposase. The reactions were allowed to proceed at 30°C for 30 min before 2 µl of stop solution (loading buffer) were added. The reaction mixtures were then incubated at 65°C for 10 min. Each reaction was analysed by overnight electrophoresis at 2.7 V/cm on a TAE-buffered 1% agarose gel with ethidium bromide (0.3 mg/ml). After electrophoresis, the gel was photographed on a transilluminator. ImageGauge 4.22 software (Fujifilm) was used to quantify the bands. Each condition was tested at least twice.
These assays were performed using pre-cleaved 3′ITRs (PC-ITR), i.e. ITRs in the configuration expected after excision. Double-strand ITRs were obtained by annealing equimolar amounts of 70-NTS-PN (5′[…]3′) and 70-TS-PC (5′[…]3′) single-strand oligonucleotides. Prior to annealing, the transferred strand (70-TS-PC) was 5′-end labelled using T4 polynucleotide kinase (Promega) and γ-^32P-ATP following the manufacturer's instructions. Oligonucleotides were provided by Eurofins MWG Biotech (Germany) or Eurogentec (Belgium). Reaction mixtures containing 10 mM Tris-HCl (pH 9), 50 mM NaCl, 1 mM DTT, 5% glycerol, 100 ng BSA, 100 nM of labelled PC-ITR and 100 nM MBP-MOS1 in a final volume of 20 µl were incubated at 30°C for 30 min. The pBC plasmid (which contained the cat gene, a hot-spot for Mos1 insertion) was then added to 30 ng/µL along with 5 mM MgCl2. Molecules (25 or 10 µM, as specified) or DMSO (2%) were added to the reaction mixtures along with the target DNA to estimate their effect on integration. Reactions were carried out for 3 hours at 30°C. 0.1 mg/ml proteinase K and 0.1% SDS were added to stop the reaction. DNA products were purified by phenol-chloroform extraction and ethanol precipitated using standard techniques. DNA products were resuspended in DNA loading buffer, then separated onto a 1% agarose gel in 1X TAE (Tris Acetate EDTA) buffer. The gel was dried onto a nitrocellulose membrane (Hybond N+, GE Healthcare), scanned using a Storm, and analysed with ImageQuant software. Signals were quantified using ImageQuant software. Efficiency of integration was calculated as the intensity of the integration signal divided by the intensity of free target signal plus integration signal. Each condition was tested at least twice.
All molecules were also tested in in vitro assays reproducing integration and excision reactions catalysed by MOS1. […] In contrast, E-resveratrol and E-ε-viniferin glucoside, which act more specifically on HIV-1 3′processing reaction, and E-piceid and E-pterostilbene, which is more efficient on the integration reaction, were not active on MOS1.

[2] = molecular target: T2, HIV-1 IN (Human immunodeficiency virus type 1 group M subtype B, UniProt P04585); test: HIV-1 IN in vitro concerted integration assay (processed or unprocessed donor DNA); details: for differential effect between reactions: strand transfer / processed donor versus 3′processing / unprocessed donor: comparison of concerted integration and 3′processing results; for effect on integration from the processed DNA: processed donor DNA (strand transfer); for inhibition of integration from the unprocessed substrate: unprocessed donor DNA
[3] = molecular target: T2, HIV-1 IN; test: HIV-1 IN 3′processing assay; format: biochemical; details: 600 nM IN; increasing concentrations
[4] = molecular target: T3, Mos1 transposase (MOS1) (Drosophila mauritiana, UniProt Q7JQ07); test: MOS1 in vitro transposition assay (genetic hop experiment); format: biochemical, D. mauritiana; details: for inhibition at 25 µM: DMSO control as reference, read-out: inhibition of the whole MOS1 transposition activity
T3 construct: involving the full-length Mos1 transposase (MOS1) was recently solved; made in house
T3 sequence (Q7JQ07 whole entry): as above
Experimental: The wild type Mos1 transposase (MOS1: 345 amino acids) was produced and purified as a fusion protein linked to the maltose-binding protein by using the pMal-c2 system (New England Biolabs) and following the manufacturer's instructions.
as §1
To identify the natural stilbenes active on MOS1, the 17 molecules were tested using an in vitro genetic “hop” experiment, which is the most sensitive test available as yet. Purified MOS1 was incubated with the pBC-3T3 plasmid, which was used both as the transposon donor and the target plasmid. This plasmid contains the pBR322 tetracycline resistance gene (without promoter) framed by two Mos1 ITRs. This reconstitutes a pseudo-Mos1 element named 3T3. We took advantage of the fact that the cat gene (present in the pBC backbone) is a hotspot for Mos1 integration. […] Transposition events were recovered by bacterial transformation with selection for tetracycline resistance, as a gain-of-function landmark for transposition. […] Controls correspond to assays performed without molecule but with DMSO, which is routinely used as the solvent. […] To confirm the efficiency of the six molecules, they were similarly assayed at 10 µM ( figure 6B ). Since they appeared to be still active at 10 µM, they were further characterized in order to identify the targeted step of the transposition cycle.

[5] = test system: 293T cells; details: 72 hours treatment, 1–50 µM, MTS
[6] = read-out: inhibition of concerted integration

SMILES | activity on MOS1 [1] | differential effect between reactions: strand transfer / processed donor versus 3′processing / unprocessed donor [2] | inhibition of concerted integration from processed and unprocessed donor ([2]; increasing concentrations) | inhibitory effect on 3′processing [3] | inhibition at 10 µM [2, 6] | also measured
OCC1OC(Oc2cc(O)cc(C=Cc3ccc(O)cc3)c2)C(O)C(O)C1O (stereo not drawn) [E-piceid] | not active | more active on strand transfer reaction than | inhibited both activities |  |  | 
Oc1ccc(C(O)C2c3cc(O)cc(O)c3[C@H](c3ccc(O)cc3)[C@H]2c2cc(O)cc(O)c2)cc1 (stereo partly drawn) [leachianol G] | also active against MOS1 activities | more active on strand transfer reaction than | inhibited both activities | low |  | activity against MOS1 in transposition assay ([4]; 10 µM): still active; inhibition at 25 µM ([4]; 25 µM): > 50%; inhibitory efficiency compared with raltegravir ([2]; concerted integration, increasing concentrations): inhibitory efficiencies close to raltegravir; inhibition at 50 µM [2, 6]: 30 to 60%
Oc1ccc(/C=C/c2cc(O)cc3c2[C@H](c2cc(O)cc(O)c2)[C@@H](c2ccc(O)cc2)O3)cc1 [(+)-E-ε-viniferin] |  |  |  |  | < 5% | 
Oc1ccc(/C=C/c2cc(O)cc3c2[C@H](c2cc(O)cc(O)c2)[C@@H](c2ccc(O)c(O)c2)O3)cc1 [E-scirpusin A] |  |  | inhibited both activities | low |  | 
Oc1ccc([C@H]2c3c(O)cc(O)cc3[C@H]3c4c(cc(O)cc4C2C2c4cc(O)cc5c4[C@H](c4cc(O)cc(O)c4[C@@H]2c2ccc(O)cc2)[C@@H](c2ccc(O)cc2)O5)O[C@@H]3c2ccc(O)cc2)cc1 (stereo partly drawn) [isohopeaphenol] | not active |  |  |  | < 5% | 
Oc1cc(O)cc(-c2cc3ccc(O)cc3o2)c1 [moracin M] |  |  |  |  | < 5% | 
OCC1OC(Oc2cc(C=Cc3ccc(O)cc3)c3c(c2)OC(c2ccc(O)cc2)C3c2cc(O)cc(O)c2)C(O)C(O)C1O (stereo not drawn) [E-ε-viniferin glucoside] | not active | reaction than on integration |  | showed an inhibitory effect |  | cytotoxicity, cell survival [5]: showed some toxicity; effect on integration from the processed DNA ([2]; increasing concentrations): without having any detectable effect; inhibition of integration from the unprocessed substrate ([2]; increasing concentrations): inhibit integration from the unprocessed substrate
Oc1ccc(/C=C/c2cc(O)cc(O)c2)cc1 [E-resveratrol] | not active | reaction than on integration |  | showed an inhibitory effect |  | effect on integration from the processed DNA ([2]; increasing concentrations): without having any detectable effect; inhibition of integration from the unprocessed substrate ([2]; increasing concentrations): inhibit integration from the unprocessed substrate
Oc1ccc(/C=C2/c3cc(O)cc(O)c3[C@H](c3ccc(O)cc3)[C@H]2c2cc(O)cc(O)c2)cc1 [quadrangularin A] | also active against MOS1 activities | better inhibitor of integration from unprocessed than from processed DNA | inhibited both activities | showed an inhibitory effect |  | activity against MOS1 in transposition assay ([4]; 10 µM): still active; inhibition at 25 µM ([4]; 25 µM): > 50%
Cc1nnc(C(=O)NC(C)(C)c2nc(C(=O)NCc3ccc(F)cc3)c(O)c(=O)n2C)o1 [raltegravir, reference compound] |  |  | always found better inhibitor than the selected compounds | inhibition property than the selected compounds |  | 
Oc1cc(O)cc(/C=C/c2ccc(O)c(O)c2)c1 [E-piceatannol] |  |  |  | showed an inhibitory effect |  | cytotoxicity, cell survival [5]: showed some toxicity; effect on integration from the processed DNA ([2]; increasing concentrations): without having any detectable effect; inhibition of integration from the unprocessed substrate ([2]; increasing concentrations): inhibit integration from the unprocessed substrate
Oc1ccc([C@H]2Oc3cc(O)cc(/C=C/c4ccc5c(c4)[C@@H](c4cc(O)cc6c4[C@H](c4cc(O)cc(O)c4)[C@@H](c4ccc(O)cc4)O6)[C@H](c4ccc(O)cc4)O5)c3[C@@H]2c2cc(O)cc(O)c2)cc1 [vitisin B, E-vitisin B] |  |  |  |  | < 5% | activity against MOS1 in transposition assay ([4]; 10 µM): still active; activity against MOS1 in transposition assay ([4]; 25 µM): active against MOS1
Oc1ccc(/C=C/c2cc(O)cc3c2[C@@H](c2cc(O)cc4c2[C@H](c2cc(O)cc(O)c2)[C@@H](c2ccc(O)cc2)O4)[C@H](c2ccc(O)cc2)O3)cc1 [E-miyabenol C] |  |  |  |  | < 5% | 
Oc1ccc([C@@H]2c3c(O)cc(O)cc3[C@H]3c4c(cc(O)cc4[C@H]2O)O[C@@H]3c2ccc(O)cc2)cc1 [ampelopsin A] |  |  |  |  | < 5% | 
